Entries after “also recorded” stand apart in the source; their conditions may differ.
Experiments:
K562-MDR1 cells = assay: P-glycoprotein (CD243)/propidium iodide flow cytometry; assay type: cell-based, human
Protocol: BK124.1 or DMSO were added to cells and after 24 h incubation cells were harvested and stained with FITC Mouse Anti-Human P-glycoprotein (CD243) clone 17F9 (BD, Franklin Lakes, NJ, USA) or an appropriate isotype control. Propidium iodide was added to […]. Cells were analyzed on a BD FACSCalibur flow cytometer using CellQuest software (BD, Franklin Lakes, NJ, USA). […]
Flow cytometry analysis of CD243 (P-glycoprotein)
Cells were seeded at a concentration of 1-2 × 10^5 cells/mL in a 6- or 24-well plate. After 24 hours of pre-incubation, DMSO or test compounds in DMSO were added. The cells were then incubated for 24 hours. After this time, cells were harvested, washed with 0.5% BSA in PBS (Mg2+ and Ca2+ free), and labeled for 30 minutes on ice with FITC Mouse Anti-Human P-glycoprotein (CD243) clone 17F9 (BD, Franklin Lakes, NJ, USA) or an appropriate isotype control. Following incubation with the antibody, cells were stained with propidium iodide, washed with PBS and a nalyzed on a BD FACSCalibur flow cytometer using CellQuest software (BD, Franklin Lakes, NJ, USA). […]

K562 cells [1] = assay: K562 in BK124.1 long term experiment (6 months), MDR1 induction; assay type: cell-based, human; conditions: 1 µM or 2 µM for at least 6 months
K562 cells [2] = assay: K562 cell cycle analysis; assay type: cell-based, human; conditions: 5 µM, after 24 h; lesser extent after 48 h
Protocol: BK124.1 or DMSO was added to cells and after 24 or 48 h incubation. Cells were fixed and stained with 50 µg/mL propidium iodide (Sigma-Aldrich, St. Louis, MO, USA) with 50 µg/mL DNAse-free RNase. The cell cycle was analyzed on a FACSCalibur cytometer (Becton Dickinson, Franklin Lakes, NJ, USA) using ModFit LT 3.2 software (Verity Software House, Topsham, ME, USA). […]
incubated overnight at 37 °C and analyzed using an iMark Microp late absorbance reader (Bio-Rad, Hercules, CA, USA). Results were calculated relative to control cells treated with DMSO only.
[…] CD34+ cells were plated at a concentration of 2.5 × 10^5 cells/mL in a 24-well plate. […] A f t e r a further 24 hours, cells were harvested and stained according to the manufacturer's protocol using the Annexin V-FITC kit for the detection of apoptosis (BD, Franklin Lakes, NJ, USA). Stained cells were immediately analyzed on a BD FACSCalibur using CellQuest softwa re (BD, Franklin Lakes, NJ, USA).
Cells were seeded at a concentration of 1-2 × 10^5 cells/mL in a 6-well plate. After 24 hours of pre-incubation, BK124.1 in DMSO was added to the cells (vDMSO/vmedium), and incubated for 24 or 48 hours.
After incubation, cells were washed twice with ice-cold PBS (Mg2+ and Ca2+-free), resuspended in ice-cold 70% ethanol, and placed at -20 °C for 24 hours. […]
Flow cytometry analysis of CD243 (P-glycoprotein) […]

[3] = Pharmacokinetics in Balb/c nude mice; assay type: in vivo; conditions: for MRT last / half-life / AUC(0-inf) / C0: Balb/c nude; for AUC(0-inf): extrapolated to infinity; for C0: extrapolated to t = 0
Protocol: (§1) Eight-week-old female Balb/c nude mice were randomly divided into test groups and injected with BK124.1 either intraperitoneally, at 20 mg/kg or 40 mg/kg concentrations, or intravenously at 20 mg/kg concentration. The compound blood concentration was measured 15 min, 6, 12, and 24 h post-injection. For each time point, 4 mice were sacrificed. BK124.1 concentration in the bloodstream was analyzed using mass spectrometry. Toxicology was assessed by examining physiological and morphological changes at the injection site, the appearance of internal organs (liver, heart, kidneys, and spleen), blood tests, body mass, and animal behavior.

[4] = Toxicity in Balb/c nude mice; assay type: in vivo
Protocol: as §1, with “Eight-week-old female Balb/c nude mice were randomly divided into test groups and injected with BK124.1 either intraperitoneally, at 20 mg/kg or 40 mg/kg concentrations, or intravenously at 20 mg/kg concentration.” left out

K562 cells [5] = system: K562 cells; parameters: method as in PMID 26902600, PMID 31487824; conditions: chronic myelogenous (CML) K562 cells from blast crisis; cited from earlier work
[6] = IP 20 mg/kg, whole blood, female mouse
[7] = IP 40 mg/kg, whole blood, female mouse
[8] = IV 20 mg/kg, whole blood, female mouse

## CCC12C(=O)C(CC)(C(c3ccccc3)=C1c1ccccc1)C1C(=O)N(CC(O)CNC(C)C)C(=O)C12 (centres unmarked) [BK124.1, 4-[2-hydroxy-3-(propan-2-ylamino)propyl]-1,7-diethyl-8,9-diphenyl-4-azatricyclo [5.2.1.02,6]dec-8-ene-3,5,10-trione]
K562-MDR1 cells; 5 µM, 24 h, DMSO control 33.6%
  Proportion of K562-MDR1 cells, mean value: 68.3%
K562-MDR1 cells; Homo sapiens, 5 µM, 24 h, DMSO control 89.2%, read-out: Living cells (viability), mean value
  viability at 5 µM: 53.8%
K562-MDR1 cells; conclusion from K562-MDR1 data
  MDR1 substrate: not a MDR1 substrate
K562 cells [1]
  Induction of MDR1 in standard K562 cells: not able to induce MDR1; also recorded: unable to induce MDR1 expression
K562 cells [2]
  Cell cycle effect: profound G2/M arrest
[3]; [6]
  MRT last: 5.09 h
  half-life: 3.53 h
  AUC(0-inf): 9580 ng·h/mL
  C0: 1740 ng/mL
  AUClast, dose normalized: 3.24 kg·ng·h/mL/mg
  AUC∞, dose normalized: 479 kg·ng·h/mL/mg
[3]; [7]
  MRT last: 7.48 h
  half-life: 5.18 h
  AUC(0-inf): 23500 ng·h/mL
  C0: 2760 ng/mL
  AUClast, dose normalized: 16.18 kg·ng·h/mL/mg
  AUC∞, dose normalized: 587 kg·ng·h/mL/mg
[3]; [8]
  MRT last: 4.78 h
  half-life: 3.31 h
  AUC(0-inf): 6620 ng·h/mL
  C0: 1020 ng/mL
  AUClast, dose normalized: 2.50 kg·ng·h/mL/mg
  AUC∞, dose normalized: 331 kg·ng·h/mL/mg
[3]; female, mouse, IP 20 mg/kg, blood
  half-life: 3.53 h
[3]; female, mouse, IP 40 mg/kg, blood
  half-life: 5.18 h
[3]; female, mouse, IV 20 mg/kg, blood
  half-life: 3.31 h
[4]; IP 40 mg/kg
  Toxic effects in weight and internal organs' appearance: some minor toxic effects
[4]; intravenous administration
  Toxicity at the injection site: some signs of local toxicity in the tail
K562 cells [5]
  Toxicity towards human leukemia cells: selectively toxic

— paper PMC9332833 (Cancers, 2022)
